# From ChEMBL document CHEMBL1126309, “Aliphatic propargylamines: potent, selective, irreversible monoamine oxidase B inhibitors” (J Med Chem, 1992)
# Assays:
# [1] = target: T1, Amine oxidase [flavin-containing] B (Rattus norvegicus, UniProt P19643); assay: Inhibition of Monoamine oxidase B of rat liver mitochondrial membranes; type: cell membranes, Membrane
# T1 sequence (P19643 whole entry): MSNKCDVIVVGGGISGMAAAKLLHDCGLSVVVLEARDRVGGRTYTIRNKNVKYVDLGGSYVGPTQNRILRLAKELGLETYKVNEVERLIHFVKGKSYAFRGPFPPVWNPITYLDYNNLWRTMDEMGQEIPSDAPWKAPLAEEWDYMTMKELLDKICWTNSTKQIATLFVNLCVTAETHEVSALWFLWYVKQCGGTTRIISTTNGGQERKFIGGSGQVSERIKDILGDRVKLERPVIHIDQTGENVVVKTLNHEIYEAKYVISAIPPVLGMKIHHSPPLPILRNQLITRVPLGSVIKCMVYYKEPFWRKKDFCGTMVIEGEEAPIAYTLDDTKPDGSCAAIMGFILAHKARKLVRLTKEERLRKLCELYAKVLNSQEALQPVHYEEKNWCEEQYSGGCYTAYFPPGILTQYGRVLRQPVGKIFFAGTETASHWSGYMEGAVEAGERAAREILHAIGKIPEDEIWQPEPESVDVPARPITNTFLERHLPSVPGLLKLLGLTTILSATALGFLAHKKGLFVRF
# [2] = target: T2, Amine oxidase [flavin-containing] A (Rattus norvegicus, UniProt P21396); assay: Inhibition of Monoamine oxidase A of rat liver mitochondrial membranes; type: cell membranes, Membrane
# T2 sequence (P21396 whole entry): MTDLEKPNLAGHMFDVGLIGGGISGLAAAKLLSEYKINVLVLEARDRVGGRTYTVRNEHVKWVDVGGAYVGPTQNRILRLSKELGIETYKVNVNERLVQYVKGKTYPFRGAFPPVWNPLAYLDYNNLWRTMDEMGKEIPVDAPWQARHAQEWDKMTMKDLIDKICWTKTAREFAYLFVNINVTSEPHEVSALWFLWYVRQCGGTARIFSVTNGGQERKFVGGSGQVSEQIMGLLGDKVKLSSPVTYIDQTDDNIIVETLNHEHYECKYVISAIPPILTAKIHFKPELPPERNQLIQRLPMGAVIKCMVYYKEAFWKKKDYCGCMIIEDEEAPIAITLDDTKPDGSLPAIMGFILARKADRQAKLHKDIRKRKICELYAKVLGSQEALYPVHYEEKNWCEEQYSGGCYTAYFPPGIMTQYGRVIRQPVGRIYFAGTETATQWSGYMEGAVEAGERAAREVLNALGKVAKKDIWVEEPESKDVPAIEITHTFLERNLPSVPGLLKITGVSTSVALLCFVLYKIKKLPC
# Mus musculus [3] = assay: MAO activities in the mouse brain after intraperitoneal administration of compound towards 5-HT (5 x 10e-4 M) substrate; type: functional; details: ip, read-out: ID50 (the source's name)
# Mus musculus [4] = assay: MAO activities in the mouse brain after intraperitoneal administration of compound towards PE (1.9 x 10e-5 M) substrate; type: functional; details: ip, read-out: ID50 (the source's name)
# Mus musculus [5] = assay: MAO activities in the mouse brain after oral administration of compound towards 5-HT (5 x 10e-4 M) substrate; type: functional
# Mus musculus [6] = assay: MAO activities in the mouse brain after oral administration of compound towards PE (1.9 x 10e-5 M) substrate; type: functional
# Rattus norvegicus = assay: MAO activity evaluated in dissected forebrain of rat after 2 hr of administration; type: functional
# Mus musculus [7] = assay: Compound was evaluated for MAO-A activity after 9 day of chronic peritoneal administration in mouse fore brain at dose of 0.2 mg/kg; type: functional
# Mus musculus [8] = assay: Compound was evaluated for MAO-A activity after 9 days of chronic peritoneal administration in mouse fore brain at dose of 0.05 mg/kg; type: functional
# Mus musculus [9] = assay: Compound was evaluated for MAO-B activity after 1 day of chronic peritoneal administration in mouse fore brain at dose of 0.05 mg/kg; type: functional
# Mus musculus [10] = assay: Compound was evaluated for MAO-B activity after 1 day of chronic peritoneal administration in mouse fore brain at dose of 0.2 mg/kg; type: functional
# Mus musculus [11] = assay: Compound was evaluated for MAO-B activity after 20 day of chronic peritoneal administration in mouse fore brain at dose of 0.2 mg/kg; type: functional
# Mus musculus [12] = assay: Compound was evaluated for MAO-B activity after 20 days of chronic peritoneal administration in mouse fore brain at dose of 0.05 mg/kg; type: functional
# Mus musculus [13] = assay: Compound was evaluated for MAO-A activity after 1 day of chronic peritoneal administration in mouse fore brain at dose of 0.05 mg/kg; type: functional
# Mus musculus [14] = assay: Compound was evaluated for MAO-A activity after 1 day of chronic peritoneal administration in mouse fore brain at dose of 0.2 mg/kg; type: functional
# Mus musculus [15] = assay: Compound was evaluated for MAO-A activity after 20 day of chronic peritoneal administration in mouse fore brain at dose of 0.2 mg/kg; type: functional
# Mus musculus [16] = assay: Compound was evaluated for MAO-A activity after 20 days of chronic peritoneal administration in mouse fore brain at dose of 0.05 mg/kg; type: functional
# Mus musculus [17] = assay: Compound was evaluated for MAO-B activity after 9 day of chronic peritoneal administration in mouse fore brain at dose of 0.2 mg/kg; type: functional
# Mus musculus [18] = assay: Compound was evaluated for MAO-B activity after 9 days of chronic peritoneal administration in mouse fore brain at dose of 0.05 mg/kg; type: functional
# Monoamine oxidase [19] = target: T3, Monoamine oxidase (Rattus norvegicus, UniProt P19643+P21396); type: protein assay
# T3 sequence (P19643 whole entry): T1 sequence (P19643 whole entry)
# T3 sequence (P21396 whole entry): T2 sequence (P21396 whole entry)
# Mus musculus [20] = assay: Compound was evaluated for MAO-B activity after 1 day of chronic peritoneal administration in mouse fore brain at dose of 0.25 mg/kg; type: functional
# Mus musculus [21] = assay: Compound was evaluated for MAO-A activity after 1 day of chronic peritoneal administration in mouse fore brain at dose of 0.25 mg/kg; type: functional
# Mus musculus [22] = assay: Compound was evaluated for MAO-A activity after 13 days of chronic peritoneal administration in mouse fore brain at dose of 0.25 mg/kg; type: functional
# Mus musculus [23] = assay: Compound was evaluated for MAO-B activity after 13 days of chronic peritoneal administration in mouse fore brain at dose of 0.25 mg/kg; type: functional
# Monoamine oxidase [24] = target: T3, Monoamine oxidase; assay: Compound was evaluated for the inhibition of deamination of dopamine (DA) by Monoamine oxidase at 5 x 10e-4 M; type: protein assay
# Mus musculus [25] = assay: Compound was evaluated for MAO-A activity after 21 days of chronic peritoneal administration in mouse fore brain at dose of 2 mg/kg; type: functional
# Mus musculus [26] = assay: Compound was evaluated for MAO-B activity after 1 days of chronic peritoneal administration in mouse fore brain at dose of 2 mg/kg; type: functional
# Mus musculus [27] = assay: Compound was evaluated for MAO-B activity after 10 days of chronic peritoneal administration in mouse fore brain at dose of 2 mg/kg; type: functional
# Mus musculus [28] = assay: Compound was evaluated for MAO-B activity after 21 days of chronic peritoneal administration in mouse fore brain at dose of 2 mg/kg; type: functional
# Mus musculus [29] = assay: Compound was evaluated for MAO-A activity after 10 days of chronic peritoneal administration in mouse fore brain at dose of 2 mg/kg; type: functional
# Mus musculus [30] = assay: Compound was evaluated for MAO-A activity after 1 days of chronic peritoneal administration in mouse fore brain at dose of 2 mg/kg; type: functional
SMILES,IC50 [1],IC50 [2],ED50 (Mus musculus [3]) [µmol/kg],ED50 (Mus musculus [4]) [µmol/kg],Relative activity (Mus musculus [5]) [%],Relative activity (Mus musculus [6]) [%],ED50 (Rattus norvegicus) [µmol/kg],also measured
C#CCN(C)CCCCC(=O)OCC.O=C(O)C(=O)O,Not Active,Not Active,–,–,–,–,–,–
C#CCN(C)CCC(=O)O.O=C(O)C(=O)O,Not Active,Not Active,–,–,–,–,–,–
C#CCN(C)CCCCC.O=C(O)C(=O)O,370 nM,120000 nM,> 218,6.8,97,72,–,–
C#CCN(C)CCCC.Cl,1400 nM,98000 nM,478,11.2,98,67,141,–
C#CCN(C)C(C)CCCC.Cl (centres undefined),82 nM,90000 nM,262,1.2,–,–,5.1,Relative activity (Mus musculus [7]): 103%; Relative activity (Mus musculus [8]): 95%; Relative activity (Mus musculus [9]): 55%; Relative activity (Mus musculus [10]): 36%; Relative activity (Mus musculus [11]): 27%; Relative activity (Mus musculus [12]): 37%; Relative activity (Mus musculus [13]): 104%; Relative activity (Mus musculus [14]): 103%; Relative activity (Mus musculus [15]): 81%; Relative activity (Mus musculus [16]): 76%; Relative activity (Mus musculus [17]): 35%; Relative activity (Mus musculus [18]): 41%
C#CCN(C)C(C)CCCCC.Cl (centres undefined),210 nM,19000 nM,127,2.6,99,39,–,IC50 (Monoamine oxidase [19]): 320 nM
C#CCN(C)CCCCCCO.Cl,120000 nM,Not Active,–,–,–,–,–,–
C#CCN(C)C(C)CCCCCCCCCC.Cl (centres undefined),39 nM,1900 nM,223,15.5,107,64,–,IC50 (Monoamine oxidase [19]): 280 nM
C#CCN(C)C(C)CCCCCCCC.Cl (centres undefined),180 nM,3900 nM,144,15,97,104,171,Relative activity (Mus musculus [20]): 94%; Relative activity (Mus musculus [21]): 85%; Relative activity (Mus musculus [22]): 79%; IC50 (Monoamine oxidase [19]): 210 nM; Relative activity (Mus musculus [23]): 70%
C#CCN(C)C(C)CCCCO.Cl (centres undefined),130000 nM,Not Active,–,–,–,–,–,–
C#CCNC.Cl,Not Active,Not Active,–,–,–,–,–,–
C#CCN(C)C(CC)CC,180 nM,2400 nM,52.9,2.7,–,–,–,–
C#CCN(C)C(C)C.Cl,19000 nM,Not Active,–,–,–,–,–,IC50 (Monoamine oxidase [24]): 28000 nM
C#CCN(C)C(C)CCC(=O)OCC.Cl (centres undefined),Not Active,Not Active,–,–,–,–,–,–
C#CCN(C)CCCCCCC.Cl,–,38000 nM,> 491,75.6,123,118,–,–
C#CCN(C)C(C)CCC.Cl.O=C(O)C(=O)O (centres undefined),180 nM,12000 nM,114,1.7,89,31,5.2,Relative activity (Mus musculus [25]): 31%; Relative activity (Mus musculus [20]): 94%; Relative activity (Mus musculus [26]): 40%; Relative activity (Mus musculus [27]): 19%; Relative activity (Mus musculus [28]): 18%; Relative activity (Mus musculus [21]): 102%; Relative activity (Mus musculus [29]): 49%; Relative activity (Mus musculus [22]): 89%; IC50 (Monoamine oxidase [19]): 5600 nM; Relative activity (Mus musculus [23]): 35%; Relative activity (Mus musculus [30]): 91%
C#CCN(C)C(C)CC (centres undefined),–,–,69.7,4.2,–,–,31,–
C#CCN(C)[C@H](C)Cc1ccccc1 [SELEGILINE],–,–,143,2.3,–,–,26.3,–
